According to paper PMC10092485, “Sialic Acid 4‐N‐Piperazine and Piperidine Derivatives Bind with High Affinity to the P. mirabilis Sialic Acid Sodium Solute Symporter” (Chemmedchem, 2022):

Experiments:
Format in all cases: binding
[1] = target: T1, PmSiaT (Proteus mirabilis, UniProt B4EZY7); assay: isothermal titration calorimetry; conditions: 25 °C; 50 mM Tris-HCl, 150 mM NaCl, 0.0174 % DDM, pH 8.0 (at 5 °C); n fixed to 1
T1 construct: gene siaT; detergent-solubilised transporter in DDM; extinction coefficient 76,445
Description: isothermal titration calorimetry on PmSiaT

[2] = target: T1, PmSiaT; assay: nanoDSF thermal shift; conditions: PBS, 0.0174 % DDM, 2 μM protein, 1.25 mM ligand; shift counted from the Neu5Ac complex
[3] = target: T1, PmSiaT; assay: nanoDSF thermal shift; conditions: PBS, 0.0174 % DDM, 2 μM protein, 1.25 mM ligand; reference ligand for all shifts

T1 sequence (B4EZY7 whole entry): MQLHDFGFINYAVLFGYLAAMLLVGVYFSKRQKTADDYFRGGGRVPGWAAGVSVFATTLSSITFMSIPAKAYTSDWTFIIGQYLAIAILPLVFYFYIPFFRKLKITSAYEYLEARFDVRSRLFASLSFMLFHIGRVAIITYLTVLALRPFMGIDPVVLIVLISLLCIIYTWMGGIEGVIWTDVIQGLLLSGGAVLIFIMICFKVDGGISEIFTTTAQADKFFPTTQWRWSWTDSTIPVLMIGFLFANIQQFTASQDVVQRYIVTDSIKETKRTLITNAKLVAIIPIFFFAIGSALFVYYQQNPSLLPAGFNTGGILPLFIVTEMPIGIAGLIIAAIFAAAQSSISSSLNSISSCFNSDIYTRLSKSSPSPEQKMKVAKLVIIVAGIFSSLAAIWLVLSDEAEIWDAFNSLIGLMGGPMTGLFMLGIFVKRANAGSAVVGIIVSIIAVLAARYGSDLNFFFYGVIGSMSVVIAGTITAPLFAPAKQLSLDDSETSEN

Structure (SMILES) | Kd [1] | ΔT m (relative to Neu5Ac) [2] | also measured
CC(=O)N[C@H]1[C@H]([C@H](O)[C@H](O)CO)OC(O)(C(=O)O)C[C@@H]1N1CCC(c2cccc(Br)c2)CC1 (stereo partly drawn) [3 f, 5‐Acetamido‐4‐[4‐(3‐bromophenyl)piperidin‐1‐yl]‐3,4,5‐ trideoxy‐D‐glycero‐β‐D‐galacto‐nonulosonic acid] | 1.32 µM | – | –
CC(=O)N[C@H]1[C@H]([C@H](O)[C@H](O)CO)OC(O)(C(=O)O)C[C@@H]1N1CCC(c2ccc(Br)cc2)CC1 (stereo partly drawn) [3 g, 5‐Acetamido‐4‐[4‐(4‐bromophenyl)piperidin‐1‐yl]‐3,4,5‐ trideoxy‐D‐glycero‐β‐D‐galacto‐nonulosonic acid] | – | piperidine or piperazine‐linked halogenated aromatic residues showed the largest thermal stabilizations | –
CC(=O)N[C@H]1[C@H]([C@H](O)[C@H](O)CO)OC(O)(C(=O)O)C[C@@H]1N1CCC(c2cccc(C(F)(F)F)c2)CC1 (stereo partly drawn) [3 h, 5‐Acetamido‐3,4,5‐ trideoxy‐4‐[4‐(3‐trifluoromethylphenyl)piperidin‐1‐yl]‐D‐glycero‐β‐D‐galacto‐nonulosonic acid] | – | piperidine or piperazine‐linked halogenated aromatic residues showed the largest thermal stabilizations | –
CC(=O)N[C@H]1[C@H]([C@H](O)[C@H](O)CO)OC(O)(C(=O)O)C[C@@H]1N1CCC(c2cccc(O)c2)CC1 (stereo partly drawn) [3 i, 5‐Acetamido‐4‐[4‐(3‐hydroxyphenyl)piperidin‐1‐yl]‐3,4,5‐ trideoxy‐D‐glycero‐β‐D‐galacto‐nonulosonic acid] | 17.9 µM | – | –
CC(=O)N[C@H]1[C@H]([C@H](O)[C@H](O)CO)OC(O)(C(=O)O)C[C@@H]1N1CCN(C(=O)c2cccc(Cl)c2Cl)CC1 (stereo partly drawn) [6 c, 5‐Acetamido‐4‐[4‐(2,3‐dichlorobenzoyl)piperazin‐1‐yl]‐3,4,5‐ trideoxy‐D‐glycero‐β‐D‐galacto‐nonulosonic acid] | 0.47 µM | – | –
CC(=O)N[C@H]1[C@H]([C@H](O)[C@H](O)CO)OC(O)(C(=O)O)C[C@@H]1O (stereo partly drawn) [Neu5Ac] | – | – | ΔT m [3]: The ΔT m reported are given in °C and relative to Neu5Ac
